Results from US7829591B2, “Flavanone compound and uses thereof” (Pokka Corporation, priority 2003, dated 2010).

Tests used:
Experiment in all cases: Antimicrobial activity test with Compounds 1 to 4
Type in all cases: cell-based
E. coli = details: for effect on growth and development of E. coli (in words): 5-50 ppm
Procedure: (§1) That is, first of all, each of Compounds 1 to 4 was dissolved in 70% ethanol, and thereafter, standard agar media were prepared wherein the concentration of each of Compounds 1 to 4 was adjusted to be 0 ppm, 5 ppm, 10 ppm, 15 ppm, 20 ppm, or 50 ppm. Subsequently, these standard agar media were subjected to autoclave sterilization so as to prepare evaluation media, and each of the biological indicators was inoculated in each of these evaluation media. After the incubation of each of the bacteria, the number of the bacteria per a petri dish (CFU/petri dish) was determined.

[1] = test system: Salmonella enteritidis (S. en; NBRC3313); details: for effect on growth and development of S. en (in words): 5-50 ppm
Procedure: as §1

Bacillus cereus (B. ce) = details: for effect on growth and development of spore forming bacteria, B. ce (in words): 5-50 ppm
Procedure: as §1

[2] = test system: Staphylococcus aureus (Sta.); details: for effect on growth and development of Gram-positive bacteria, Sta. (in words): 5-50 ppm
Procedure: as §1

[3] = 5 ppm in standard agar medium, 0 ppm: >3000 (Table 3), 5 (Table 4)
[4] = 5 ppm in standard agar medium, 0 ppm: >3000 (Table 3), 221 (Table 4)
[5] = 5 ppm in standard agar medium, 0 ppm: 13 (Table 3), 183 (Table 4)
[6] = 5 ppm in standard agar medium, 0 ppm: 470 (Table 3), 202 (Table 4)

| SMILES | effect on growth and development of E. coli (in words) (E. coli) | Number of Bacteria, E. coli (E. coli; [3]) | Number of Bacteria, E. coli (E. coli; 10 ppm in standard agar medium) | Number of Bacteria, E. coli (E. coli; 15 ppm in standard agar medium) | Number of Bacteria, E. coli (E. coli; 20 ppm in standard agar medium) | Number of Bacteria, E. coli (E. coli; 50 ppm in standard agar medium) | effect on growth and development of S. en (in words) [1] | Number of Bacteria, S. en [1, 4] | Number of Bacteria, S. en ([1]; 10 ppm in standard agar medium) | Number of Bacteria, S. en ([1]; 15 ppm in standard agar medium) | Number of Bacteria, S. en ([1]; 20 ppm in standard agar medium) | Number of Bacteria, S. en ([1]; 50 ppm in standard agar medium) | effect on growth and development of spore forming bacteria, B. ce (in words) (Bacillus cereus (B. ce)) | Number of Bacteria, B. ce (Bacillus cereus (B. ce); [5]) | Number of Bacteria, B. ce (Bacillus cereus (B. ce); 10 ppm in standard agar medium) | Number of Bacteria, B. ce (Bacillus cereus (B. ce); 15 ppm in standard agar medium) | Number of Bacteria, B. ce (Bacillus cereus (B. ce); 20 ppm in standard agar medium) | Number of Bacteria, B. ce (Bacillus cereus (B. ce); 50 ppm in standard agar medium) | effect on growth and development of Gram-positive bacteria, Sta. (in words) [2] | Number of Bacteria, Sta. [2, 6] | other results |
| --- | --- | --- | --- | --- | --- | --- | --- | --- | --- | --- | --- | --- | --- | --- | --- | --- | --- | --- | --- | --- | --- |
| CC(C)=CCC/C(C)=C/Cc1c([C@@H]2CC(=O)c3c(O)cc(O)cc3O2)ccc(O)c1O [Compound 1, 5,7,3′,4′-tetrahydroxy-2′-C-geranylflavanone] | little effect upon the growth and development | >3000 CFU/petri dish | >3000 CFU/petri dish | >3000 CFU/petri dish | >3000 CFU/petri dish | >3000 CFU/petri dish | little effect upon the growth and development | >3000 CFU/petri dish | >3000 CFU/petri dish | >3000 CFU/petri dish | >3000 CFU/petri dish | >3000 CFU/petri dish | more strongly the growth and development of each of Gram-5 positive bacteria and spore forming bacteria is inhibited | 12 CFU/petri dish | 0 CFU/petri dish | 0 CFU/petri dish | 0 CFU/petri dish | 0 CFU/petri dish | more strongly the growth and development of each of Gram-5 positive bacteria and spore forming bacteria is inhibited | 344 CFU/petri dish | Number of Bacteria, Sta. ([2]; 10 ppm in standard agar medium): 36 CFU/petri dish; Number of Bacteria, Sta. ([2]; 15 ppm in standard agar medium): 0 CFU/petri dish; Number of Bacteria, Sta. ([2]; 20 ppm in standard agar medium): 0 CFU/petri dish; Number of Bacteria, Sta. ([2]; 50 ppm in standard agar medium): 0 CFU/petri dish |
| CC(C)=CCC/C(C)=C/Cc1c([C@@H]2CC(=O)c3c(cc(O)c(CC=C(C)C)c3O)O2)ccc(O)c1O [Compound 4, 5,7,3′,4′-tetrahydroxy-6-(3′″,3′″-dimethylallyl)-2′-C-geranylflavanone] | high antimicrobial activity | 6 CFU/petri dish | 6 CFU/petri dish | 9 CFU/petri dish | 6 CFU/petri dish | 0 CFU/petri dish | antimicrobial activity | 249 CFU/petri dish | 199 CFU/petri dish | 225 CFU/petri dish | 132 CFU/petri dish | 65 CFU/petri dish | high antimicrobial activity | 16 CFU/petri dish | 0 CFU/petri dish | 0 CFU/petri dish | 0 CFU/petri dish | 0 CFU/petri dish | high antimicrobial activity | 26 CFU/petri dish | Number of Bacteria, Sta. ([2]; 10 ppm in standard agar medium): 7 CFU/petri dish; Number of Bacteria, Sta. ([2]; 15 ppm in standard agar medium): 10 CFU/petri dish; Number of Bacteria, Sta. ([2]; 20 ppm in standard agar medium): 1 CFU/petri dish; Number of Bacteria, Sta. ([2]; 50 ppm in standard agar medium): 0 CFU/petri dish |
| CC(C)=CCC/C(C)=C/Cc1c(O)cc2c(c1O)C(=O)C[C@@H](c1ccc(O)c(O)c1)O2 [Compound 3, 5,7,3′,4′-tetrahydroxy-6-C-geranylflavanone] | high antimicrobial activity | 3 CFU/petri dish | 1 CFU/petri dish | 0 CFU/petri dish | 0 CFU/petri dish | 0 CFU/petri dish | antimicrobial activity | 296 CFU/petri dish | 207 CFU/petri dish | 116 CFU/petri dish | 143 CFU/petri dish | 43 CFU/petri dish | high antimicrobial activity | 4 CFU/petri dish | 0 CFU/petri dish | 0 CFU/petri dish | 0 CFU/petri dish | 0 CFU/petri dish | high antimicrobial activity | 22 CFU/petri dish | Number of Bacteria, Sta. ([2]; 10 ppm in standard agar medium): 0 CFU/petri dish; Number of Bacteria, Sta. ([2]; 15 ppm in standard agar medium): 0 CFU/petri dish; Number of Bacteria, Sta. ([2]; 20 ppm in standard agar medium): 0 CFU/petri dish; Number of Bacteria, Sta. ([2]; 50 ppm in standard agar medium): 0 CFU/petri dish |
| CC(C)=CCC/C(C)=C/Cc1cc([C@@H]2CC(=O)c3c(O)cc(O)cc3O2)cc(O)c1O [Compound 2, 5,7,3′,4′-tetrahydroxy-5′-C-geranylflavanone] | little effect upon the growth and development | >3000 CFU/petri dish | >3000 CFU/petri dish | >3000 CFU/petri dish | >3000 CFU/petri dish | >3000 CFU/petri dish | little effect upon the growth and development | >3000 CFU/petri dish | >3000 CFU/petri dish | >3000 CFU/petri dish | >3000 CFU/petri dish | >3000 CFU/petri dish | more strongly the growth and development of each of Gram-5 positive bacteria and spore forming bacteria is inhibited | 17 CFU/petri dish | 0 CFU/petri dish | 0 CFU/petri dish | 0 CFU/petri dish | 0 CFU/petri dish | more strongly the growth and development of each of Gram-5 positive bacteria and spore forming bacteria is inhibited | 395 CFU/petri dish | Number of Bacteria, Sta. ([2]; 10 ppm in standard agar medium): 108 CFU/petri dish; Number of Bacteria, Sta. ([2]; 15 ppm in standard agar medium): 22 CFU/petri dish; Number of Bacteria, Sta. ([2]; 20 ppm in standard agar medium): 0 CFU/petri dish; Number of Bacteria, Sta. ([2]; 50 ppm in standard agar medium): 0 CFU/petri dish |
